Assay [1] has as its system non-small cell lung cancer cell line H460. Nature of the assay: In vitro human cancer cell line cytotoxicity (proliferation) assay in H460, CellTiter-Glo, 72 hours. The following applies: H460 cells, DMSO condition (no AKR1C3 inhibitor), read-out: CTG H460: Avg IC50 (nM) [Assay Condition: DMSO]. It is filed as cell-based. In short, it runs like this: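 IC50s in nM come from CellTiter-Glo viability read after 72 h of compound exposure. Compounds went in from 10 mM DMSO stocks onto H460 cells, which had been plated at 3×10^3 per well and grown 24 h beforehand at 37 °C, 5% CO2.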
(In general: Cellular ATP, detected with luciferase, serves as a proxy for viable cell number.)

The test system is the same in assay [2]. Nature of the assay: H460 proliferation assay in the presence of 3 uM ASP9521 (AKR1C3 specific inhibitor). The assay is classed as cell-based, human. The following applies: H460 cells, CellTiter-Glo, 72 hours, in the presence of 3 uM ASP9521 added 4 hours prior to compounds; read-out: CTG H460: Avg IC50 (nM) [Assay Condition: ASP9521]. Summed up: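 AKR1C3 blocked with 3 uM ASP9521 given 4 h ahead of test compounds. H460 cells, plated 24 h earlier, were then treated for 72 h at 37 °C in 5% CO2. CellTiter-Glo luminescence gave viability.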

Turning to `O=[N+]([O-])c1ccc2c(c1Oc1cccc(-c3ncccn3)c1)CCC2OP(=O)(N1CC1)N1CC1` (stereo not shown) [Example 84], the IC50 (usually the concentration that inhibits the measured activity by half) in assay [1] (Homo sapiens, NCI-H460, 72 h) is 10 to 50 nM; in assay [2] it was 1020 nM.

As for `O=[N+]([O-])c1ccc2c(c1Oc1ccc(F)c(OC(F)F)c1)CCC2OP(=O)(N1CC1)N1CC1` (stereo not shown) [Example 477], the IC50 is below 10 nM in assay [1] and 627 nM in assay [2].

`C[C@@H]1CN1P(=O)(OC(c1ccc([N+](=O)[O-])c(Oc2cccc(C(=O)N(C)C)c2)c1)C(F)(F)F)N1C[C@H]1C` (stereo partly shown) [Example 226]: the IC50 is 10 to 50 nM in assay [1] (Homo sapiens, NCI-H460, 72 h) and above 10000 nM in assay [2].

As to `CN(C)C(=O)c1cc(Oc2c([N+](=O)[O-])ccc3c2CCC3OP(=O)(N2CC2)N2CC2)ccn1` (racemic) [Example 253], the half-inhibitory concentration (IC50) in assay [1] is below 10 nM; in assay [2] it was 697 nM.

In the case of `O=C(c1cccc(Oc2c([N+](=O)[O-])ccc3c2CCC3OP(=O)(N2CC2)N2CC2)c1)N1CCCCC1` (stereo not shown) [Example 238], the IC50 in assay [1] was below 10 nM; in assay [2] it was 1160 nM.

Turning to `O=[N+]([O-])c1ccc2c(c1Oc1cccc(-c3ccc(F)cn3)c1)CCC2OP(=O)(N1CC1)N1CC1` (stereo not shown) [Example 323], the IC50 is below 10 nM in assay [1] and 2690 nM in assay [2].

Take `O=[N+]([O-])c1ccc2c(c1Oc1cccc(-n3cccn3)c1)CCC2OP(=O)(N1CC1)N1CC1` (stereo not shown) [Example 114]: the IC50 is below 10 nM in assay [1] and 1280 nM in assay [2].

Turning to `O=C1c2cc(Oc3cc4c(cc3[N+](=O)[O-])CCC4OP(=O)(N3CC3)N3CC3)ccc2CN1C1COC1` (stereo not shown) [Example 162], the IC50 in assay [1] (Homo sapiens, NCI-H460, 72 h) was below 10 nM; in assay [2], 969 nM.

For `O=C(c1cccc(Oc2c([N+](=O)[O-])ccc3c2CCC3OP(=O)(N2CC2)N2CC2)c1)N1CCCCC1` (single isomer, unassigned) [Example 68], the IC50 in assay [1] (Homo sapiens, NCI-H460, 72 h) was below 10 nM; in assay [2] it was 1160 nM.

For the molecule `O=C(NC1CC1)c1ccc(Oc2cc3c(cc2[N+](=O)[O-])CCC3OP(=O)(N2CC2)N2CC2)cc1` (single isomer, unassigned) [Example 172], the half-maximal inhibitory concentration (IC50) in assay [1] (Homo sapiens, NCI-H460, 72 h) was 10 to 50 nM; in assay [2], 4900 nM.

On to `O=[N+]([O-])c1ccc2c(c1Oc1ccc(F)c(-c3ccccn3)c1)CCC2OP(=O)(N1CC1)N1CC1` (stereo not shown) [Example 336], for which the IC50 in assay [1] is below 10 nM; in assay [2], 1680 nM.

Consider `O=[N+]([O-])c1ccc2c(c1Oc1ccc(F)c(OC3CCCC3)c1)CCC2OP(=O)(N1CC1)N1CC1` (stereo not shown) [Example 478], for which the IC50 is below 10 nM in assay [1] and 1690 nM in assay [2].

For the molecule `C[C@@H]1CN1P(=O)(OCc1ccc([N+](=O)[O-])c(Oc2cccc(C(=O)N(C)C)c2)c1)N1C[C@H]1C` (stereo partly shown) [Example 208], the IC50 in assay [1] (Homo sapiens, NCI-H460, 72 h) was below 10 nM; in assay [2], 184 nM.

On to `O=C1CCCCN1c1cccc(Oc2c([N+](=O)[O-])ccc3c2CCC3OP(=O)(N2CC2)N2CC2)c1` (stereo not shown) [Example 107], for which the IC50 in assay [1] (Homo sapiens, NCI-H460, 72 h) is 10 to 50 nM; in assay [2], 6500 nM.

As to `O=[N+]([O-])c1cc2c(cc1Oc1ccc(-c3ccc(F)cn3)c(F)c1)C(OP(=O)(N1CC1)N1CC1)CC2` (stereo not shown) [Example 143], the results for the IC50 in assay [1] and in assay [2] were below 10 nM and 1720 nM, respectively.

Turning to `Cn1cccc(-c2ccc(Oc3c([N+](=O)[O-])ccc4c3CCC4OP(=O)(N3CC3)N3CC3)cc2)c1=O` (stereo not shown) [Example 48], the IC50 in assay [1] is at least 100 nM; in assay [2], 1010 nM.

Consider `Cn1c(=O)oc2ccc(Oc3c([N+](=O)[O-])ccc4c3CC[C@@H]4OP(=O)(N3CC3)N3CC3)cc21` [Example 380], for which the IC50 in assay [1] (Homo sapiens, NCI-H460, 72 h) was below 10 nM; in assay [2] it was 722 nM.

For the molecule `O=C1c2ccc(Oc3c([N+](=O)[O-])ccc4c3CC[C@@H]4OP(=O)(N3CC3)N3CC3)cc2CN1C1CC1` [Example 379], the IC50 in assay [1] (Homo sapiens, NCI-H460, 72 h) is below 10 nM; in assay [2], 447 nM.

Turning to `O=[N+]([O-])c1cc2oc(COP(=O)(N3CC3)N3CC3)cc2cc1Oc1cccc(-c2ccccn2)c1` [Example 536], the concentration for half-maximal inhibition (IC50) was below 10 nM in assay [1] (Homo sapiens, NCI-H460, 72 h) and 651 nM in assay [2].

As to `O=[N+]([O-])c1ccc2c(c1Oc1ccc(-c3ccc(F)cc3)c(F)c1)CCC2OP(=O)(N1CC1)N1CC1` (single isomer, unassigned) [Example 28], the IC50 in assay [1] is below 10 nM; in assay [2], 870 nM.

Consider `O=[N+]([O-])c1ccc2c(c1Oc1cccc(-c3ccccc3)c1)CCC2OP(=O)(N1CC1)N1CC1` (single isomer, unassigned) [Example 30], for which the concentration for half-maximal inhibition (IC50) in assay [1] (Homo sapiens, NCI-H460, 72 h) is below 10 nM; in assay [2], 1510 nM.

For the molecule `O=[N+]([O-])c1ccc2c(c1Oc1ccc(-c3ccc(F)cc3)cc1)OCCC2OP(=O)(N1CC1)N1CC1` (stereo not shown) [Example 132], the IC50 in assay [1] (Homo sapiens, NCI-H460, 72 h) is below 10 nM; in assay [2] it was 1250 nM.

Turning to `O=C(c1cccc(Oc2c([N+](=O)[O-])ccc3c2CCC3OP(=O)(N2CC2)N2CC2)c1)N1CCC1` (stereo not shown) [Example 98], the IC50 in assay [1] is below 10 nM; in assay [2], 205 nM.

On to `O=C1c2cc(Oc3cc4c(cc3[N+](=O)[O-])CCC4OP(=O)(N3CC3)N3CC3)ccc2CN1C1COC1` (stereo not shown) [Example 163], for which the results for the IC50 in assay [1] and in assay [2] were below 10 nM and 1340 nM, respectively.

Consider `C[C@@H](OP(=O)(N1CC1)N1CC1)c1cc2cc(Oc3cccc(C(=O)N4CCC4)c3)c([N+](=O)[O-])cc2o1` [Example 559], for which the IC50 in assay [1] is 10 to 50 nM; in assay [2], 7000 nM.

As to `O=[N+]([O-])c1ccc2c(c1Oc1ccc(F)c(OC3CCCC3)c1)CCC2OP(=O)(N1CC1)N1CC1` (stereo not shown) [Example 479], the IC50 was below 10 nM in assay [1] and 1630 nM in assay [2].

As to `O=C(c1cccc(Oc2cc3cc(COP(=O)(N4CC4)N4CC4)oc3cc2[N+](=O)[O-])c1)N1CCC(F)(F)C1` [Example 545], the values for the IC50 in assay [1] and in assay [2] were below 10 nM and 970 nM, respectively.

Consider `O=[N+]([O-])c1ccc2c(c1Oc1ccc(-c3ccncc3)cc1)CCC2OP(=O)(N1CC1)N1CC1` (stereo not shown) [Example 62], for which the IC50 in assay [1] was at least 100 nM; in assay [2] it was 6100 nM.

Regarding `CSc1ccc(Oc2c([N+](=O)[O-])ccc3c2CCC3OP(=O)(N2CC2)N2CC2)cc1` (stereo not shown) [Example 505], the values for the IC50 in assay [1] and in assay [2] were below 10 nM and 327 nM, respectively.

As to `CN(C)C(=O)c1ccc(Oc2c([N+](=O)[O-])ccc3c2CCC3OP(=O)(N2CC2)N2CC2)cc1` (single isomer, unassigned) [Example 17], the IC50 in assay [1] (Homo sapiens, NCI-H460, 72 h) was 10 to 50 nM; in assay [2], 758 nM.

As for `CN(C)C(=O)c1ccc(Oc2cc3c(cc2[N+](=O)[O-])CCC3OP(=O)(N2CC2)N2CC2)cc1` (single isomer, unassigned) [Example 141], the IC50 was below 10 nM in assay [1] and 366 nM in assay [2].

For the molecule `CN(C)C(=O)c1cccc(Oc2c([N+](=O)[O-])ccc3c2OCCC3OP(=O)(N2CC2)N2CC2)c1` (stereo not shown) [Example 129], the half-inhibitory concentration (IC50) is 10 to 50 nM in assay [1] and 982 nM in assay [2].

On to `O=C(NC1CC1)c1ccc(Oc2c([N+](=O)[O-])ccc3c2CC[C@H]3OP(=O)(N2CC2)N2CC2)cc1` [Example 263], for which the IC50 in assay [1] was below 10 nM; in assay [2] it was 943 nM.

With `Cn1cc(-c2ccc(Oc3c([N+](=O)[O-])ccc4c3CC[C@H]4OP(=O)(N3CC3)N3CC3)cc2)cn1` [Example 273], the values for the 50% inhibitory concentration (IC50) in assay [1] and in assay [2] were below 10 nM and 1400 nM, respectively.

`Cn1cc(-c2cccc(Oc3c([N+](=O)[O-])ccc4c3CCC4OP(=O)(N3CC3)N3CC3)c2)cn1` (racemic) [Example 299]: the figures for the IC50 in assay [1] and in assay [2] were below 10 nM and 744 nM, respectively.

Source of the values: patent US20260167656A1, “PHOSPHORAMIDATE COMPOUNDS AND USES THEREOF” (ALLORION THERAPEUTICS INC, priority 2022, published 2026).
